Counter-ions that a name gives are not always drawn.
How the values were obtained:
HeLa cells = test: cytotoxicity by crystal violet staining; format: cell-based; conditions: 40 h
Procedure: Seven of the compounds according to the invention were selected for biological tests. Their cytotoxicity was assessed using crystal violet staining as adapted from standard procedure^[31]. Briefly, HeLa cells were seeded on 96-well plates, treated with the given concentrations of the selected compound, and exposed or not to the pulse protocol of illumination with light at 390 nm (pulses of 75 ms every 15 s). After 40 h cells were stained with crystal violet solution (0.5% crystal violet in 20% methanol) for 10 min. Unbound crystal violet was removed by rinsing with distilled water and cells were air-dried. Crystal violet was subsequently eluted from cells with 0.1 M sodium citrate in 50% ethanol. The absorbance of crystal violet is proportional to the cell number and was determined at 590 nm with a FLUOstar Omega microplate reader (BMG Labtech).
Each compound was tested at 6 doses: 100 nM, 500 nM, 1 μM, 2 μM, 5 μM and 10 μM. In order to ensure their solubility in the cell culture media, DMSO was used as a co-solvent, and to provide comparability between all samples the volume of DMSO was adjusted to obtain its final concentration as 1% in the cell culture media for all the compounds at all concentrations tested.
Results presented in Table 4 below are expressed as a fold growth relative to the control growth of the cells treated only with a co-solvent (1% DMSO), and are represented as a mean value from triplicates coming from a representative experiment.

[1] = thermal reversion halflife of spontaneous cis->trans isomerisation; format: physicochemical; conditions: PBS pH = 7.4, 20% MeCN
Description: Finally, trends in τ were ascertained by establishing the PSS at λstrong, then turning off the light source at time t0, and measuring A(λstrong, t) over time. Data were acquired for half an hour, or else the first three halflives (whichever was the shorter period), then fitted to the equation:
A(λstrong,t)=A(λstrong,dark)−[A(λstrong,dark)−A(λstrong,t0)]×e^−kt
This fit was used to return an in vitro halflife τ* for the cis->trans spontaneous thermal reversion isomerisation process, defined as τ=ln 2/k. It should be noted however, that azoaryl compounds' thermal reversion rates are known to depend strongly upon their microenvironment, such as pH and solvent/solvation effects^[7,38]. This was shown for compound (I.1), where a change of only 1.4 pH units gave a 25% change in τ*; note that different compounds are expected to respond very differently to changes in pH so no unifying trends are expected. Therefore the τ* acquired in vitro were considered appropriate only for qualitative intercomparison between samples (trend of τ* vs structure), rather than quantitative prediction of the τ values which might be experienced in cellulo or in vivo. Indeed, these in vitro τ* values appeared at least three times longer than what would have been expected based on in cellulo experiments where the pause time between activating pulses was varied.
Thermal reversion times were measured as described above. Those for selected compounds are presented below (Table 2).

[2] = UV-Vis absorption spectra of trans and cis isomers (λstrong, εE, λiso); format: physicochemical; conditions: PBS pH = 7.4, 20% MeCN
Procedure: A(λmeas, λirrad) is used to indicate the measured UV-Vis absorption spectrum in the range 340 nm<λmeas<650 nm, as a function of the irradiating wavelength λirrad once PSS(λirrad) has been established. UV-Vis measurement of A(λmeas, λirrad) was performed. It was considered that the PSS had been established when the absorbance profile ceased to alter under continued irradiation. An isosbestic point (wavelength λiso) was found for each compound by examining where the absorption A(λmeas) was invariant with respect to changing λirrad. A(λmeas, dark) was also acquired with samples that had been kept in the dark for at least several hours, and it was assumed that no significant spectral contribution from the cis isomer was present in these spectra. […]
HPLC (high-performance liquid chromatography) was then used as described in Part A to measure ε*E(λ) and ε*Z(λ) (the separated absorption profiles of trans and cis isomers respectively, in arbitrary units which are not intercomparable in an absolute sense). It was approximated that these spectra would be identical in shape if measured under the UV-Vis conditions, so once ε*E(λ) and ε*Z(λ) were scaled appropriately relative to each other, these scaled spectra could be used to deconvolute A(λmeas, λirrad). This approximation was considered useful especially in the regions of greatest spectral interest, ie. regions of relatively strong absorption (since only rather well-absorbed wavelengths will allow significant photoisomerisation under finite photon flux). To place the arbitrary-unit absorption spectra on an absolute scale, the maximal absorption wavelength λstrong of the trans-isomer was first selected by examining A(λmeas, dark): typically, λstrong≈380 nm. with Expressing A(λstrong, dark) in units M^−1cm^−1, ε*E(λstrong) was then scaled so that εE(λstrong)=A(λstrong, dark), giving:
εE(λ)=ε*E(λ)×[A(λstrong,dark)/ε*E(λstrong)]
and the isosbestic point was used to scale the cis-isomer spectrum as per:
εZ(λ)=ε*Z(λ)×[εE(λiso)/ε*Z(λiso)]
However, using A(λstrong, dark) was preferred, since A(λiso) was typically so much smaller that the standard deviation in the scaled absorptivities which it generated was far greater.
Absorption spectra in cuvette (“UV-Vis”) were acquired on a Varian CaryScan 50 (1 cm, 100 μL or 1 mL volume) with Peltier cell temperature control unit maintained at 37° C., in PBS at pH˜7.4 containing a low percentage of cosolvent if needed (typically 2% MeCN or 5% DMSO). A ThorLabs Polychrome V monochromator with a fibre optic cable output directed into the cuvette was used to perform photoisomerisation studies by UV-Vis spectrophotometry although single LEDs of approximately 10-20 mW output, 15-20° cone angle, and 10-15 nm bandwidth FWHM, obtained commercially from Roithner Lasertechnik GmbH, were equally successful in providing repeatable monochromatic photoisomerisation. Separated spectra of trans and […] forms were acquired from the inline Diode Array Detector on the AGILENT 1260 SL coupled LC-MS system after HPLC separation. Fluorescence spectrophotometry (excitation and emission spectra) were acquired on a Varian CaryEclipse fluorescence spectrophotometer.
By the above procedure, the trans- and cis-isomers of each species were separated by HPLC as described in Part A, and ε*E(λ) and ε*Z(λ) were measured on the inline ultraviolet/visible Diode Array Detector; these were then scaled as outlined above. The parameters λstrong, εE(λstrong) and λiso are tabulated for selected compounds below (Table 1).

[3] = 100 nM, 390 nm (75 ms every 15 s)
[4] = 500 nM, 390 nm (75 ms every 15 s)
[5] = 1 μM, 390 nm (75 ms every 15 s)
[6] = 2 μM, 390 nm (75 ms every 15 s)
[7] = 5 μM, 390 nm (75 ms every 15 s)
[8] = 10 μM, 390 nm (75 ms every 15 s)

Row | τ, reversion time [1] [min] | εE(λstrong) [2] [M⁻¹ cm⁻¹] | λiso [2] [nm] | λstrong [2] [nm] | SMILES | mean fold growth (HeLa cells; [3]) [fold] | mean fold growth (HeLa cells; 100 nM, Dark) [fold] | mean fold growth (HeLa cells; [4]) [fold] | mean fold growth (HeLa cells; 500 nM, Dark) [fold] | mean fold growth (HeLa cells; [5]) [fold] | mean fold growth (HeLa cells; 1 μM, Dark) [fold] | mean fold growth (HeLa cells; [6]) [fold] | mean fold growth (HeLa cells; 2 μM, Dark) [fold] | mean fold growth (HeLa cells; [7]) [fold] | mean fold growth (HeLa cells; 5 μM, Dark) [fold] | mean fold growth (HeLa cells; [8]) [fold] | mean fold growth (HeLa cells; 10 μM, Dark) [fold]
1 | 61 | 13300 | 445 | 365 | COc1ccc(N=Nc2cc(OC)c(OC)c(OC)c2)cc1F [I.3, 1-(3-fluoro-4-methoxyphenyl)-2-(3,4,5-trimethoxyphenyl)diazene] | 0.93 | 1.03 | 0.88 | 1.00 | 0.82 | 0.95 | 0.62 | 0.90 | 0.39 | 0.96 | 0.47 | 0.99
2 | 104 | 20102 | 447 | 365 | COc1ccc(N=Nc2cc(OC)c(OC)c(OC)c2)cc1C(=O)O [I.29, 2-methoxy-5-((3,4,5-trimethoxyphenyl)diazenyl)benzoic acid] |  |  |  |  |  |  |  |  |  |  |  | 
3 | 40 | 18163 | 460 | 375 | COc1ccc(N=Nc2cc(OC)c(OC)c(OC)c2)cc1OC [I.11, 1-(3,4-dimethoxyphenyl)-2-(3,4,5-trimethoxyphenyl)diazene] |  |  |  |  |  |  |  |  |  |  |  | 
4 | 248 | 17813 | 452 | 360 | COc1ccc(N=Nc2cc(OC)c(OC)c(OC)c2)cc1C=O [I.28, 2-methoxy-5-((3,4,5-trimethoxyphenyl)diazenyl)benzaldehyde] |  |  |  |  |  |  |  |  |  |  |  | 
5 | 8.4 | 16300 | 475 | 380 | COc1ccc(N=Nc2cc(OC)c(OC)c(OC)c2)c(NC(C)=O)c1 [I.26, N-(5-methoxy-2-((3,4,5-trimethoxyphenyl)diazenyl)phenyl)acetamide] |  |  |  |  |  |  |  |  |  |  |  | 
6 |  |  |  |  | COc1ccc(N=Nc2cc(OC)c(OC)c(OC)c2)cc1OC(=O)N1CCCCC1CNC(=O)[C@@H](N)CC(C)C (stereo partly drawn) [I.10, (2-methoxy 5-((3,4,5-trimethoxyphenyl)diazenyl)phenyl) 2-((L-leucinamido)methyl)piperidine 1-carboxylate 2,2,2-trifluoroacetate salt] | 0.986 | 0.95 | 0.945 | 0.99 | 0.387 | 0.92 | 0.357 | 0.90 | 0.217 | 0.99 | 0.293 | 0.78
7 | 129 | 19540 | 445 | 365 | COc1ccc(N=Nc2cc(OC)c(OC)c(OC)c2)cc1Br [I.27, 1-(3-bromo-4-methoxyphenyl)-2-(3,4,5-trimethoxyphenyl)diazene] |  |  |  |  |  |  |  |  |  |  |  | 
8 | 116 | 11400 | 430 | 355 | COc1ccc(N=Nc2cc(F)c(OC)c(F)c2)cc1 [I.9, 1-(3,5-difluoro-4-methoxyphenyl)-2-(4-methoxyphenyl)diazene] |  |  |  |  |  |  |  |  |  |  |  | 
9 | 270 | 14200 | 440 | 355 | COc1ccc(N=Nc2cc(OC)c(OC)c(OC)c2)cn1 [I.13, 2-methoxy-5-((3,4,5-trimethoxyphenyl)diazenyl)pyridine] |  |  |  |  |  |  |  |  |  |  |  | 
10 | 50 | 13600 | 455 | 365 | COc1cc(N=Nc2ccc(OC)c([N+](=O)[O-])c2F)cc(OC)c1OC [I.7, 1-(2-fluoro-4-methoxy-3-nitrophenyl)-2-(3,4,5-trimethoxyphenyl)diazene] |  |  |  |  |  |  |  |  |  |  |  | 
11 | 3.3 | 18000 | 485 | 390 | COc1cc(N=Nc2ccc(OC)c3ncccc23)cc(OC)c1OC [I.14, 8-methoxy-5-((3,4,5-trimethoxyphenyl)diazenyl)quinoline] |  |  |  |  |  |  |  |  |  |  |  | 
12 | 134 | 19578 | 450 | 365 | COc1ccc(N=Nc2cc(OC)c(OC)c(OC)c2)c(F)c1F [I.5, 1-(2,3-difluoro-4-methoxyphenyl)-2-(3,4,5-trimethoxyphenyl)diazene] |  |  |  |  |  |  |  |  |  |  |  | 
13 | 28 | 12400 | 485 | 380 | COc1ccc(N=Nc2cc(OC)c(OC)c(OC)c2)c(OC)c1 [I.12, 1-(2,4-dimethoxyphenyl)-2-(3,4,5-trimethoxyphenyl)diazene] |  |  |  |  |  |  |  |  |  |  |  | 
14 |  |  |  |  | COc1ccc(N=Nc2cc(OC)c(OC)c(OC)c2)cc1NC(=O)[C@@H](N)CO [I.20, (2-methoxy 5-((3,4,5-trimethoxyphenyl)diazenyl)phenyl)) 1-L-serinamide 2,2,2-trifluoroacetate salt] | 1.09 | 0.99 | 1.10 | 1.11 | 1.00 | 1.12 | 0.96 | 1.10 | 0.68 | 1.03 | 0.51 | 1.01
